Earlier results as cited in patent US20030180282A1, “Method of treatment of thrombotic events” (priority 2002, published 2003).
Residues, ends and D or L forms follow the SMILES beside them.

How the values were obtained:
[1] = coadministration with thrombolytic therapy

SMILES | effect on reocclusion and recurrent ischemia [1] | incidence of death and reinfarction (IMPACT-AMI, all patients randomized, placebo 7.3%) | major hemorrhage (in vivo)
CC(=O)Oc1ccccc1C(=O)O [aspirin] | approximate halving of frequency |  | 
N=C(N)NCCCC[C@@H]1NC(=O)CCSSC[C@@H](C(N)=O)NC(=O)[C@@H]2CCCN2C(=O)[C@H](Cc2c[nH]c3ccccc23)NC(=O)[C@H](CC(=O)O)NC(=O)CNC1=O [eptifibatide] (HELM PEPTIDE1{[O=C(CCS[*:3])[*:2]].[N=C(N)NCCCC[C@H](N[*:1])C(=O)[*:2]].G.D.W.P.C.[am]}$PEPTIDE1,PEPTIDE1,1:R3-7:R3$$$V2.0) |  | 8.0% | 7.1%
